What was measured:
Type in all cases: in vivo
[1] = test system: green foxtail (Setaria viridis); test: Test A preemergence soil spray, visual injury rating 0-100; conditions: 10 days, 0 = no effect, 100 = complete control
Method in brief: (§1)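 Visual injury, scored 0-100 (100 = complete control) against untreated plants, 10 days after greenhouse treatment. Test chemicals in surfactant-containing non-phytotoxic solvent were applied in loam soil and sand, as a preemergence soil spray on seeds or postemergence to plants at the one- to two-leaf stage.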

soybean (Glycine max) [2] = test: as above; conditions: 10 days, 0 = no effect, 100 = complete control
Method in brief: as §1

[3] = test system: blackgrass (Alopecurus myosuroides); test: as above; conditions: 10 days, 0 = no effect, 100 = complete control
Method in brief: as §1

[4] = test system: oat, wild (wild oat, Avena fatua); test: as above; conditions: 10 days, 0 = no effect, 100 = complete control
Method in brief: as §1

[5] = test system: wheat (Triticum aestivum); test: as above; conditions: 10 days, 0 = no effect, 100 = complete control
Method in brief: as §1

[6] = test system: ragweed (common ragweed, Ambrosia artemisiifolia); test: as above; conditions: 10 days, 0 = no effect, 100 = complete control
Method in brief: as §1

[7] = test system: ryegrass, Italian (italian ryegrass, Lolium multiflorum); test: as above; conditions: 10 days, 0 = no effect, 100 = complete control
Method in brief: as §1

corn (Zea mays) [8] = test: as above; conditions: 10 days, 0 = no effect, 100 = complete control
Method in brief: as §1

[9] = test system: palmer (palmer amaranth, palmer pigweed, Amaranthus palmeri); test: as above; conditions: 10 days, 0 = no effect, 100 = complete control
Method in brief: as §1

kochia (Bassia scoparia) [10] = test: as above; conditions: 10 days, 0 = no effect, 100 = complete control
Method in brief: as §1

[11] = test system: barnyardgrass (Echinochloa crus-galli); test: as above; conditions: 10 days, 0 = no effect, 100 = complete control
Method in brief: as §1

[12] = test system: galium (catchweed bedstraw, Galium aparine); test: Test A postemergence application, visual injury rating 0-100; conditions: 10 days
Method in brief: as §1

[13] = test system: green foxtail (Setaria viridis); test: as above; conditions: 10 days
Method in brief: as §1

soybean (Glycine max) [14] = test: as above; conditions: 10 days
Method in brief: as §1

[15] = test system: blackgrass (Alopecurus myosuroides); test: as above; conditions: 10 days
Method in brief: as §1

[16] = test system: oat, wild (wild oat, Avena fatua); test: as above; conditions: 10 days
Method in brief: as §1

[17] = test system: wheat (Triticum aestivum); test: as above; conditions: 10 days
Method in brief: as §1

[18] = test system: ragweed (common ragweed, Ambrosia artemisiifolia); test: as above; conditions: 10 days
Method in brief: as §1

[19] = test system: ryegrass, Italian (italian ryegrass, Lolium multiflorum); test: as above; conditions: 10 days
Method in brief: as §1

corn (Zea mays) [20] = test: as above; conditions: 10 days
Method in brief: as §1

[21] = test system: palmer (palmer amaranth, palmer pigweed, Amaranthus palmeri); test: as above; conditions: 10 days
Method in brief: as §1

kochia (Bassia scoparia) [22] = test: as above; conditions: 10 days
Method in brief: as §1

[23] = test system: barnyardgrass (Echinochloa crus-galli); test: as above; conditions: 10 days
Method in brief: as §1

[24] = test system: horseweed (Erigeron canadensis); test: as above; conditions: 10 days
Method in brief: as §1

[25] = test system: barnyardgrass (Echinochloa crusgalli); test: Test B flooded paddy test, visual plant response rating 0-100; conditions: 250 g ai/ha, Flood, applied to paddy water, evaluated after 13 days
Method in brief: (§2)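 In this flooded assay, 2-leaf seedlings received compound through the water layer, kept at 3 cm over the soil. Plants were held 13 days in a greenhouse and then visually compared with control pots.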

[26] = test system: sedge, umbrella (small-flower umbrella sedge, Cyperus difformis); test: as above; conditions: 250 g ai/ha, Flood, applied to paddy water, evaluated after 13 days
Method in brief: as §2

[27] = test system: ducksalad (Heteranthera limosa); test: as above; conditions: 250 g ai/ha, Flood, applied to paddy water, evaluated after 13 days
Method in brief: as §2

rice (Oryza sativa) = test: as above; conditions: 250 g ai/ha, Flood, applied to paddy water, evaluated after 13 days
Method in brief: as §2

[28] = 31 g ai/ha, postemergence, 0 = no effect, 100 = complete control
[29] = Postemergence, 125 g ai/ha, 0 is no effect, 100 is complete control

`CC1(C(=O)NC2C=CC(C(=O)O)C2)CN(c2cc(Cl)cc(Cl)c2)C(=O)O1` (stereo not shown) [Compound 62] was tested, and the “Foxtail, Green plant response rating (0-100)” value ([1]; 31 g ai/ha) was 80, the “Foxtail, Green plant response rating (0 to 100 scale)” value ([1]; 125 g ai/ha) was 90 and the “Soybean plant response rating (0-100)” value (soybean (Glycine max) [2]; 31 g ai/ha) was 0. For the same compound, the “Soybean plant response rating (0 to 100 scale)” value (soybean (Glycine max) [2]; 125 g ai/ha) was 60, the “Blackgrass plant response rating (0-100)” value ([3]; 31 g ai/ha) was 30 and the “Blackgrass plant response rating (0 to 100 scale)” value ([3]; 125 g ai/ha) was 70. For the same compound, the “Oat, Wild plant response rating (0-100)” value ([4]; 31 g ai/ha) was 40, the “Oat, Wild plant response rating (0 to 100 scale)” value ([4]; 125 g ai/ha) was 70 and the “Wheat plant response rating (0-100)” value ([5]; 31 g ai/ha) was 80. The “Wheat plant response rating (0 to 100 scale)” value ([5]; 125 g ai/ha) was 90, the “Ragweed plant response rating (0-100)” value ([6]; 31 g ai/ha) was 30 and the “Ragweed plant response rating (0 to 100 scale)” value ([6]; 125 g ai/ha) was 20. The “Ryegrass, Italian plant response rating (0-100)” value ([7]; 31 g ai/ha) was 60, the “Ryegrass, Italian plant response rating (0 to 100 scale)” value ([7]; 125 g ai/ha) was 80 and the “Corn plant response rating (0-100)” value (corn (Zea mays) [8]; 31 g ai/ha) was 30. For the same compound, the “Corn plant response rating (0 to 100 scale)” value (corn (Zea mays) [8]; 125 g ai/ha) was 80, the “Amaranth, Palmer plant response rating (0-100)” value ([9]; 31 g ai/ha) was 90 and the “Amaranth, Palmer plant response rating (0 to 100 scale)” value ([9]; 125 g ai/ha) was 100. For the same compound, the “Kochia plant response rating (0-100)” value (kochia (Bassia scoparia) [10]; 31 g ai/ha) was 30, the “Kochia plant response rating (0 to 100 scale)” value (kochia (Bassia scoparia) [10]; 125 g ai/ha) was 90 and the “Barnyardgrass plant response rating (0-100)” value ([11]; 31 g ai/ha) was 80. For the same compound, the “Barnyardgrass plant response rating (0 to 100 scale)” value ([11]; 125 g ai/ha) was 100, the “Galium plant response rating (0-100)” value [12, 28] was 80 and the “Galium plant response rating (0 to 100 scale)” value [12, 29] was 80. For the same compound, the “Foxtail, Green plant response rating (0-100)” value [13, 28] was 90, the “Foxtail, Green plant response rating (0 to 100 scale)” value [13, 29] was 90 and the “Soybean plant response rating (0-100)” value (soybean (Glycine max) [14]; [28]) was 80. The “Soybean plant response rating (0 to 100 scale)” value (soybean (Glycine max) [14]; [29]) was 90, the “Blackgrass plant response rating (0-100)” value [15, 28] was 90 and the “Blackgrass plant response rating (0 to 100 scale)” value [15, 29] was 100. For the same compound, the “Oat, Wild plant response rating (0-100)” value [16, 28] was 90, the “Oat, Wild plant response rating (0 to 100 scale)” value [16, 29] was 90 and the “Wheat plant response rating (0-100)” value [17, 28] was 90. The “Wheat plant response rating (0 to 100 scale)” value [17, 29] was 90, the “Ragweed plant response rating (0-100)” value [18, 28] was 40 and the “Ragweed plant response rating (0 to 100 scale)” value [18, 29] was 90. For the same compound, the “Ryegrass, Italian plant response rating (0-100)” value [19, 28] was 90, the “Ryegrass, Italian plant response rating (0 to 100 scale)” value [19, 29] was 100 and the “Corn plant response rating (0-100)” value (corn (Zea mays) [20]; [28]) was 100. The “Corn plant response rating (0 to 100 scale)” value (corn (Zea mays) [20]; [29]) was 100, the “Amaranth, Palmer plant response rating (0-100)” value [21, 28] was 90 and the “Amaranth, Palmer / Pigweed, Palmer plant response rating (0 to 100 scale)” value [21, 29] was 90. The “Kochia plant response rating (0-100)” value (kochia (Bassia scoparia) [22]; [28]) was 70, the “Kochia plant response rating (0 to 100 scale)” value (kochia (Bassia scoparia) [22]; [29]) was 80 and the “Barnyardgrass plant response rating (0-100)” value [23, 28] was 100. For the same compound, the “Barnyardgrass plant response rating (0 to 100 scale)” value [23, 29] was 100, the “Horseweed plant response rating (0-100)” value [24, 28] was 50 and the “Horseweed plant response rating (0 to 100 scale)” value [24, 29] was 70. For the same compound, the “Plant response rating, Barnyardgrass (0 to 100 scale, 0 is no effect and 100 is complete control)” value [25] was 50, the “Plant response rating, Sedge, Umbrella (0 to 100 scale, 0 is no effect and 100 is complete control)” value [26] was 98 and the “Plant response rating, Ducksalad (0 to 100 scale, 0 is no effect and 100 is complete control)” value [27] was 90. The “Plant response rating, Rice (0 to 100 scale, 0 is no effect and 100 is complete control)” value (rice (Oryza sativa)) was 15.

— patent publication US20260285850A1, “SUBSTITUTED OXAZOLIDINONES AND IMIDAZOLINONES AS HERBICIDES” (FMC CORPORATION, priority 2023, published 2026)
